{"source": "patent US20170044100A1", "about": "“INHIBITORS OF DRUG-RESISTANT MYCOBACTERIUM TUBERCULOSIS” (THE JOHNS HOPKINS UNIVERSITY, priority 2014, published 2017)", "key": {"[1]": {"test_system": "M. tuberculosis strain H37Rv", "experiment": "microbe, parasite or virus in culture", "type": "cell-based, Mycobacterium tuberculosis", "set-up": "MICMABA: unit not given here", "details": "for MICMABA: H37Rv, MABA, Table 9; for MIC: Mycobacterium tuberculosis"}, "[2]": {"test_system": "V4207 (drug susceptible strain of M. tuberculosis)", "experiment": "microbe, parasite or virus in culture", "type": "cell-based", "details": "Mycobacterium tuberculosis, MABA, read-out: MIC V4207 (DS)"}, "[3]": {"test_system": "M. tuberculosis H37Rv", "experiment": "microbe, parasite or virus in culture", "type": "cell-based, Mycobacterium tuberculosis", "set-up": "MICBD / MBCBD: unit not given here", "details": "for MBC: Mycobacterium tuberculosis, H37RV, read-out: minimum bactericidal concentration (MBC); for MBCBD / MICBD: H37Rv, broth dilution, Table 9"}, "[4]": {"test_system": "M. tuberculosis H37Rv", "type": "cell-based, Mycobacterium tuberculosis", "details": "4× MIC"}, "[5]": {"test_system": "M. tuberculosis H37Rv", "type": "in vivo, BALB/c mice"}, "[6]": {"set-up": "species or system BALB/c mice", "details": "mouse, in vivo", "experimental": "Female BALB/c mice (20 g each, Charles River Laboratories) were given a single dose of compound 12 at 100 mg/kg by oral gavage in a volume of 0.2 mL. […] Mouse lungs were removed, weighed and stored at −80° C. Plasma was separated by centrifugation at 12,000 x g for 20 min at 4° C. and stored at −80° C. Mouse lungs were homogenized by bead-beating in 0.5 mL of liquid chromatography/mass spectrometry (LC/MS) water and supernatants were recovered by centrifugation at 4° C. for 20 min. Concentrations of compound 12 in plasma and lung homogenate supernatants were analyzed with LC-tandem MS (LC-MS/MS, AB SCIEX QTRAP 5500 system) with compound 2 as internal standard. MS detection of mass transitions 299.01/146.1 and 299.01/131.1 was carried out. Concentration calculation was done with MultiQuant Software (Version 2.1, AB SCIEX). The pharmacokinetic profile of the test compound was analyzed from plasma and lung concentration-time data after oral administration.\nA single 100 mg/kg dose of compound 12 was administered to 24 mice (3 per time point). Plasma and lung concentration of compound 12 was determined by liquid chromatography-tandem mass spectrometry."}, "[7]": {"experiment": "Cytotoxicity assay on Vero cells (alamar blue)", "details": "African green monkey, Vero cells (ATCC CCL-81)"}, "[8]": {"test_system": "Vero cells", "experiment": "Cytotoxicity assay on Vero cells (alamar blue)", "details": "for IC50: Chlorocebus sabaeus, Vero"}, "[9]": {"experiment": "in vitro", "details": "African green monkey, IC50 (cytotoxicity against Vero cells), Table 1"}, "[10]": {"details": "control strains H37Rv and V4207, read-out: MIC"}, "[11]": {"details": "parental H37Rv strain, read-out: MIC for H37Rv"}, "[12]": {"details": "read-out: IC50 Vero Cells, Vero cells, Table 9"}}, "note": "Like-named read-outs stand apart in the source and are kept apart here."}
{"smiles": "Cc1cc(C)c2cc(C(=O)NC3CCCCCCC3)[nH]c2c1", "note": "[Compound 12, N-Cyclooctyl-4,6-dimethyl-1H-indole-2-carboxamide]", "values": [{"measurement": "MICMABA", "setting": "[1]", "result": 0.0039}, {"measurement": "MIC", "setting": "[1]; H37RV", "result": 0.013, "unit": "µM"}, {"measurement": "MIC", "setting": "[1]; [10]", "result": 0.0039, "unit": "µg/mL"}, {"measurement": "MIC", "setting": "[1]; [11]", "result": 0.0039, "unit": "µg/mL"}, {"measurement": "MIC for H37Rv", "setting": "[1]; parental H37Rv strain", "result": 0.0039, "unit": "µg/mL"}, {"measurement": "MIC", "setting": "[2]", "result": 0.026, "unit": "µM"}, {"measurement": "MBC", "setting": "[3]", "result": 0.0078, "unit": "µg/mL"}, {"measurement": "time to kill at least 4 log10 CFUs", "setting": "[4]", "result": "≤ 5", "unit": "days"}, {"measurement": "Mean lung CFU counts (standard deviation), Day 7", "setting": "[5]; 33.3 mg/kg oral gavage daily (5 days per week)", "result": "7.184 (0.244)"}, {"measurement": "Mean lung CFU counts (standard deviation), Day 14", "setting": "[5]; 33.3 mg/kg oral gavage daily", "result": "7.001 (0.206)"}, {"measurement": "Mean lung CFU counts (standard deviation), Day 28", "setting": "[5]; 33.3 mg/kg oral gavage daily", "result": "6.919 (0.112)"}, {"measurement": "Mean lung CFU counts (standard deviation), Day 7", "setting": "[5]; 100 mg/kg oral gavage daily", "result": "6.902 (0.243)"}, {"measurement": "Mean lung CFU counts (standard deviation), Day 14", "setting": "[5]; 100 mg/kg oral gavage daily", "result": "7.122 (0.148)"}, {"measurement": "Mean lung CFU counts (standard deviation), Day 28", "setting": "[5]; 100 mg/kg oral gavage daily", "result": "6.803 (0.068)"}, {"measurement": "Mean lung CFU counts (standard deviation), Day 7", "setting": "[5]; 300 mg/kg oral gavage daily", "result": "6.768 (0.329)"}, {"measurement": "Mean lung CFU counts (standard deviation), Day 14", "setting": "[5]; 300 mg/kg oral gavage daily", "result": "6.981 (0.305)"}, {"measurement": "Mean lung CFU counts (standard deviation), Day 28", "setting": "[5]; 300 mg/kg oral gavage daily", "result": "6.746 (0.157)"}, {"measurement": "lung CFU counts compared to untreated mice", "setting": "[5]; after four weeks of treatment, 33, 100 and 300 mg/kg daily oral gavage", "result": "significantly lower"}, {"measurement": "oral bioavailability in mice", "setting": "[6]", "result": "orally bioavailable"}, {"measurement": "AUC0-24, lung", "setting": "[6]; po, 100 mg/kg", "result": 31.40, "unit": "mg·h/kg"}, {"measurement": "IC50 at 72 h", "setting": "[7]", "result": 54, "unit": "µM"}, {"measurement": "IC50", "setting": "[8]; read-out: IC50 Vero Cells", "result": 16, "unit": "µg/mL"}, {"measurement": "Selectivity Index", "setting": "[8]; Vero IC50 versus MIC, Table 9", "result": 4000}, {"measurement": "selectivity index", "setting": "[8]; toxicity versus MIC", "result": 4000}]}
{"smiles": "Cc1cc(C)c2cc(C(=O)Nc3ccccc3)[nH]c2c1", "note": "[Compound 4, N-Phenyl-4,6-dimethyl-1H-indole-2-carboxamide]", "values": [{"measurement": "MICMABA", "setting": "[1]", "result": 1}, {"measurement": "MIC", "setting": "[1]; H37RV", "result": 3.8, "unit": "µM"}, {"measurement": "MBCBD", "setting": "[3]", "result": 8}, {"measurement": "MICBD", "setting": "[3]", "result": 1}, {"measurement": "IC50", "setting": "[9]", "result": "> 200", "unit": "µM"}, {"measurement": "IC50", "setting": "[8]; [12]", "result": "> 64", "unit": "µg/mL"}]}
{"smiles": "Cc1cc(C)c2cc(C(=O)NC3CCCCC3)[nH]c2c1", "note": "[Compound 3, N-Cyclohexyl-4,6-dimethyl-1H-indole-2-carboxamide]", "values": [{"measurement": "MICMABA", "setting": "[1]", "result": 0.125}, {"measurement": "MIC", "setting": "[1]; H37RV", "result": 0.93, "unit": "µM"}, {"measurement": "MIC", "setting": "[1]; [10]", "result": "0.125 to 0.25", "unit": "µg/mL"}, {"measurement": "MIC", "setting": "[1]; [11]", "result": "0.125 to 0.25", "unit": "µg/mL"}, {"measurement": "MIC", "setting": "[2]", "result": 0.93, "unit": "µM"}, {"measurement": "MBCBD", "setting": "[3]", "result": 0.25}, {"measurement": "MICBD", "setting": "[3]", "result": 0.25}, {"measurement": "MBC", "setting": "[3]", "result": 0.25, "unit": "µg/mL"}, {"measurement": "IC50", "setting": "[9]", "result": "> 200", "unit": "µM"}, {"measurement": "Selectivity Index", "setting": "[8]", "result": ">256"}, {"measurement": "selectivity index", "setting": "[8]", "result": "> 256"}, {"measurement": "IC50", "setting": "[8]; [12]", "result": "> 64", "unit": "µg/mL"}, {"measurement": "IC50 for Vero cell viability", "setting": "[8]; Vero cell line", "result": 16, "unit": "µg/mL"}]}
